Where “and” joins values, the source holds several entries; their conditions need not be identical. Identical values can stand only once.
Experiments:
Assay type in all cases: binding
[1] = target: T1, FITC-labeled CFTRpS753pS768 peptide (no 14-3-3) (Homo sapiens, UniProt P13569); experiment: Dose-response FP control assay in the absence of 14-3-3; conditions: No 14-3-3
T1 construct: made in house; host or cells: synthetic peptide
In short: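 Control run without 14-3-3: FITC-CFTR pS753/pS768 peptide (100 nM or 10 nM) with compound titrated in twofold dilutions in 10 mM HEPES pH 7.4, 150 mM NaCl, 0.1% Tween20, 1 mg/mL BSA. Fluorescence polarization read at ex 485/em 535 nm, background subtracted, n = 3. Curves fitted by four-parameter log(agonist) vs. response.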

[2] = target: T2, 14-3-3β/CFTRpS753pS768 complex (Homo sapiens, UniProt P13569+P31946); experiment: Dose-response fluorescence polarization (FP) assay, compound titration; conditions: for FP signal: With 14-3-3
T2 construct: His6 (cleaved yes); made in house; peptide synthetic
In short: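 Compounds were titrated in two-fold dilutions against 10 μM 14-3-3β and FITC-CFTR pS753pS768 peptide (100 nM or 10 nM). Buffer: 10 mM HEPES pH 7.4, 150 mM NaCl, 0.1% Tween20, 1 mg/mL BSA. Polarization was read at ex 485/em 535 nm, and EC50 was derived from a four-parameter variable-slope fit.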

[3] = target: T2, 14-3-3β/CFTRpS753pS768 complex; experiment: FP assay, 14-3-3β titration at constant compound concentration (apparent KD); conditions: replicates

T2 sequence (P31946 whole entry): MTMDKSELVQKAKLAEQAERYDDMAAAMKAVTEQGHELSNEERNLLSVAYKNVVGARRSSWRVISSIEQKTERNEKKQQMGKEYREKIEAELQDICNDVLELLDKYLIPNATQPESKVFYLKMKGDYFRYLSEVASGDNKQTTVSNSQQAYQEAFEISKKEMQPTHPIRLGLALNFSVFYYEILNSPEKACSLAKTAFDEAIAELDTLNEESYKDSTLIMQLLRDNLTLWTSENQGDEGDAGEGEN
T2 sequence (P13569 747-774 limits assumed): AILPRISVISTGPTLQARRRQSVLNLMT

N=C(N)NCCCC1NC(=O)C(CCC(N)=O)NC(=O)C(CCCNC(=N)N)NC(=O)C2CCCN2Cc2ccccc2Sc2ccccc2CNC1=O (stereo not shown) [CY007502]
FP signal ([1]; compound 453 pM): 1
FP signal ([1]; compound 906 pM): 2
FP signal ([1]; compound 1.81198e-9 M): 2
FP signal ([1]; compound 3.62396e-9 M): 3
FP signal ([1]; compound 7.24792e-9 M): 3
FP signal ([1]; compound 1.44958e-8 M): 1
FP signal ([1]; compound 2.89917e-8 M): 3
FP signal ([1]; compound 5.79834e-8 M): 4
FP signal ([1]; compound 1.15967e-7 M): 3
FP signal ([1]; compound 2.31934e-7 M): 4
FP signal ([1]; compound 4.63867e-7 M): 6
FP signal ([1]; compound 9.27734e-7 M): 3
FP signal ([1]; compound 1.85547e-6 M): 3
FP signal ([1]; compound 3.71094e-6 M): 4
FP signal ([1]; compound 7.42187e-6 M): 6
FP signal ([1]; compound 1.48437e-5 M): 6
FP signal ([1]; compound 2.96875e-5 M): 6
FP signal ([1]; compound 5.9375e-5 M): 26
FP signal ([1]; compound 0.00011875 M): 67
FP signal ([1]; compound 0.0002375 M): 127
FP signal ([1]; compound 0.000475 M): 188
FP signal ([1]; compound 0.00095 M): 241
EC50 ([2]; 14-3-3β 10 μM, labeled CFTRpS753pS768 100 nM, read-out: EC50): 275 µM
FP signal ([2]; compound 453 pM): 1
FP signal ([2]; compound 906 pM): 2
FP signal ([2]; compound 1.81198e-9 M): 2
FP signal ([2]; compound 3.62396e-9 M): 3
FP signal ([2]; compound 7.24792e-9 M): 3
FP signal ([2]; compound 1.44958e-8 M): 1
FP signal ([2]; compound 2.89917e-8 M): 3
FP signal ([2]; compound 5.79834e-8 M): 4
FP signal ([2]; compound 1.15967e-7 M): 3
FP signal ([2]; compound 2.31934e-7 M): 4
FP signal ([2]; compound 4.63867e-7 M): 6
FP signal ([2]; compound 9.27734e-7 M): 3
FP signal ([2]; compound 1.85547e-6 M): 3
FP signal ([2]; compound 3.71094e-6 M): 4
FP signal ([2]; compound 7.42187e-6 M): 6
FP signal ([2]; compound 1.48437e-5 M): 6
FP signal ([2]; compound 2.96875e-5 M): 6
FP signal ([2]; compound 5.9375e-5 M): 26
FP signal ([2]; compound 0.00011875 M): 67
FP signal ([2]; compound 0.0002375 M): 127
FP signal ([2]; compound 0.000475 M): 188
FP signal ([2]; compound 0.00095 M): 241
FP signal, 14-3-3β titration ([3]; 14-3-3β 7.62939e-9 M, FC-A + CY compound): 7 and 2 and -1
FP signal, 14-3-3β titration ([3]; 14-3-3β 7.62939e-9 M, compound 100 μM): 6 and 5
FP signal, 14-3-3β titration ([3]; 14-3-3β 1.52588e-8 M, FC-A + CY compound): 5 (2×) and 6
FP signal, 14-3-3β titration ([3]; 14-3-3β 1.52588e-8 M, compound 100 μM): 0 and 3 and 4
FP signal, 14-3-3β titration ([3]; 14-3-3β 3.05176e-8 M, FC-A + CY compound): 12 and 13 and 8
FP signal, 14-3-3β titration ([3]; 14-3-3β 3.05176e-8 M, compound 100 μM): 4 and 5 and 3
FP signal, 14-3-3β titration ([3]; 14-3-3β 6.10352e-8 M, FC-A + CY compound): 19 and 17 (2×)
FP signal, 14-3-3β titration ([3]; 14-3-3β 6.10352e-8 M, compound 100 μM): 3 (2×) and 5
FP signal, 14-3-3β titration ([3]; 14-3-3β 1.2207e-7 M, FC-A + CY compound): 30 and 33 and 27
FP signal, 14-3-3β titration ([3]; 14-3-3β 1.2207e-7 M, compound 100 μM): 6 and 5 and 8
FP signal, 14-3-3β titration ([3]; 14-3-3β 2.44141e-7 M, FC-A + CY compound): 51 and 57 and 45
FP signal, 14-3-3β titration ([3]; 14-3-3β 2.44141e-7 M, compound 100 μM): 8 (2×) and 7
FP signal, 14-3-3β titration ([3]; 14-3-3β 4.88281e-7 M, FC-A + CY compound): 76 and 79 and 69
FP signal, 14-3-3β titration ([3]; 14-3-3β 4.88281e-7 M, compound 100 μM): 10 and 8 and 12
FP signal, 14-3-3β titration ([3]; 14-3-3β 9.76563e-7 M, FC-A + CY compound): 99 and 95 and 89
FP signal, 14-3-3β titration ([3]; 14-3-3β 9.76563e-7 M, compound 100 μM): 16 and 15 and 18
FP signal, 14-3-3β titration ([3]; 14-3-3β 1.95313e-6 M, FC-A + CY compound): 108 (2×) and 110
FP signal, 14-3-3β titration ([3]; 14-3-3β 1.95313e-6 M, compound 100 μM): 24 (2×) and 28
FP signal, 14-3-3β titration ([3]; 14-3-3β 3.90625e-6 M, FC-A + CY compound): 119 (2×) and 117
FP signal, 14-3-3β titration ([3]; 14-3-3β 3.90625e-6 M, compound 100 μM): 31 and 32 and 33
FP signal, 14-3-3β titration ([3]; 14-3-3β 7.8125e-6 M, FC-A + CY compound): 126 and 127 and 121
FP signal, 14-3-3β titration ([3]; 14-3-3β 7.8125e-6 M, compound 100 μM): 35 and 40 and 41
FP signal, 14-3-3β titration ([3]; 14-3-3β 1.5625e-5 M, FC-A + CY compound): 132 and 128 and 129
FP signal, 14-3-3β titration ([3]; 14-3-3β 1.5625e-5 M, compound 100 μM): 49 and 50 and 52
FP signal, 14-3-3β titration ([3]; 14-3-3β 3.125e-5 M, FC-A + CY compound): 138 and 136 and 135
FP signal, 14-3-3β titration ([3]; 14-3-3β 3.125e-5 M, compound 100 μM): 64 and 62 and 65
FP signal, 14-3-3β titration ([3]; 14-3-3β 6.25e-5 M, FC-A + CY compound): 143 and 145
FP signal, 14-3-3β titration ([3]; 14-3-3β 6.25e-5 M, compound 100 μM): 87 and 83 and 85
FP signal, 14-3-3β titration ([3]; 14-3-3β 0.000125 M, FC-A + CY compound): 156 and 151 and 152
FP signal, 14-3-3β titration ([3]; 14-3-3β 0.000125 M, compound 100 μM): 104 and 106 and 103
FP signal, 14-3-3β titration ([3]; 14-3-3β 0.00025 M, FC-A + CY compound): 165 and 159 and 157
FP signal, 14-3-3β titration ([3]; 14-3-3β 0.00025 M, compound 100 μM): 119 (2×) and 122
FP signal, 14-3-3β titration ([3]; 14-3-3β 0.0005 M, FC-A + CY compound): 177 and 175 and 169
FP signal, 14-3-3β titration ([3]; 14-3-3β 0.0005 M, compound 100 μM): 151 and 144 and 146

— PMC9226124, “Macrocycle-stabilization of its interaction with 14-3-3 increases plasma membrane localization and activity of CFTR” (Nature Communications, 2022)
